{"source": "paper PMC4001115", "about": "(International journal of toxicology, 2014)", "key": {"[1]": {"assay": "Toxicokinetics: plasma DAC by LC-MS/MS after oral gavage", "type": "in vivo, CD-1 mice", "details": "for Cmax / AUC: plasma, po; for AUC: AUCfit"}, "[2]": {"test_system": "bone marrow polychromatic erythrocytes (PCEs)", "assay": "Bone marrow micronucleus analysis", "type": "in vivo, CD-1 mice", "details": "DAC 1.0 mg/kg; for Number of MPCE/1000 PCE (Mean +/− SD): single animal"}, "CD-1 mice": {"test_system": "CD-1 mice", "assay": "Microscopic findings", "type": "in vivo", "details": "THU/DAC 167/0.0 mg/kg; for Cytoplasmic Alteration, MK (Minimal): bone marrow"}, "[3]": {"details": "mice, 100 mg/kg po, cited from earlier work"}, "beagle dog": {"test_system": "beagle dog", "details": "single intravenous injections up to 1 g/kg; cited from earlier work"}, "monkey": {"test_system": "monkey", "details": "single intravenous injections up to 1 g/kg; cited from earlier work"}, "[4]": {"details": "male, CD-1, mouse, 0.2 mg/kg, males, THU/DAC 167/0.2 mg/kg, Day 1"}, "[5]": {"details": "male, CD-1, mouse, 0.2 mg/kg, males, THU/DAC 167/0.2 mg/kg, Day 58"}, "[6]": {"details": "male, CD-1, mouse, 0.4 mg/kg, males, THU/DAC 167/0.4 mg/kg, Day 1"}, "[7]": {"details": "male, CD-1, mouse, 0.4 mg/kg, males, THU/DAC 167/0.4 mg/kg, Day 58"}, "[8]": {"details": "male, CD-1, mouse, 1 mg/kg, males, THU/DAC 0/1.0 mg/kg, Day 1"}, "[9]": {"details": "male, CD-1, mouse, 1 mg/kg, males, THU/DAC 0/1.0 mg/kg, Day 58"}, "[10]": {"details": "male, CD-1, mouse, 1 mg/kg, males, THU/DAC 167/1.0 mg/kg, Day 1"}, "[11]": {"details": "male, CD-1, mouse, 1 mg/kg, males, THU/DAC 167/1.0 mg/kg, Day 58"}}, "data": [{"smiles": "Nc1ncn([C@H]2C[C@H](O)[C@@H](CO)O2)c(=O)n1", "note": "[DAC, 5-aza-2’-deoxycytidine]", "values": [{"measurement": "DAC detectable in plasma through (post dose)", "setting": "[1]; both, CD-1, mouse, in vivo", "result": 180, "unit": "min"}, {"measurement": "DAC exposure, female mice compared to males", "setting": "[1]; both, CD-1, mouse, in vivo", "result": "~ 2 fold"}, {"measurement": "Cmax", "setting": "[1]; female, CD-1, mouse, 0.2 mg/kg, females, THU/DAC 167/0.2 mg/kg, Day 1", "result": 1900, "unit": "nM"}, {"measurement": "Cmax", "setting": "[1]; female, CD-1, mouse, 0.2 mg/kg, females, THU/DAC 167/0.2 mg/kg, Day 58", "result": 960, "unit": "nM"}, {"measurement": "Cmax", "setting": "[1]; female, CD-1, mouse, 0.4 mg/kg, females, THU/DAC 167/0.4 mg/kg, Day 1", "result": 2780, "unit": "nM"}, {"measurement": "Cmax", "setting": "[1]; female, CD-1, mouse, 0.4 mg/kg, females, THU/DAC 167/0.4 mg/kg, Day 58", "result": 1650, "unit": "nM"}, {"measurement": "Cmax", "setting": "[1]; female, CD-1, mouse, 1 mg/kg, females, THU/DAC 0/1.0 mg/kg, Day 1", "result": 2050, "unit": "nM"}, {"measurement": "Cmax", "setting": "[1]; female, CD-1, mouse, 1 mg/kg, females, THU/DAC 0/1.0 mg/kg, Day 58", "result": 1230, "unit": "nM"}, {"measurement": "DAC detectable in plasma through (post dose)", "setting": "[1]; male, CD-1, mouse, in vivo", "result": 120, "unit": "min"}, {"measurement": "AUC", "setting": "[1]; [4]", "result": 1.57, "unit": "µM·h"}, {"measurement": "AUC", "setting": "[1]; [5]", "result": 1.25, "unit": "µM·h"}, {"measurement": "Cmax", "setting": "[1]; [4]", "result": 1180, "unit": "nM"}, {"measurement": "Cmax", "setting": "[1]; [5]", "result": 700, "unit": "nM"}, {"measurement": "AUC", "setting": "[1]; [6]", "result": 3.08, "unit": "µM·h"}, {"measurement": "AUC", "setting": "[1]; [7]", "result": 2.11, "unit": "µM·h"}, {"measurement": "Cmax", "setting": "[1]; [6]", "result": 2620, "unit": "nM"}, {"measurement": "Cmax", "setting": "[1]; [7]", "result": 980, "unit": "nM"}, {"measurement": "AUC", "setting": "[1]; [8]", "result": 0.864, "unit": "µM·h"}, {"measurement": "AUC", "setting": "[1]; [9]", "result": 0.976, "unit": "µM·h"}, {"measurement": "AUC", "setting": "[1]; [10]", "result": 7.65, "unit": "µM·h"}, {"measurement": "AUC", "setting": "[1]; [11]", "result": 5.87, "unit": "µM·h"}, {"measurement": "Cmax", "setting": "[1]; [8]", "result": 1750, "unit": "nM"}, {"measurement": "Cmax", "setting": "[1]; [9]", "result": 1200, "unit": "nM"}, {"measurement": "Cmax", "setting": "[1]; [10]", "result": 5810, "unit": "nM"}, {"measurement": "Cmax", "setting": "[1]; [11]", "result": 4740, "unit": "nM"}, {"measurement": "time of plasma DAC Cmax", "setting": "[1]; oral DAC with or without THU", "result": "≤ 1", "unit": "h"}, {"measurement": "Number of MPCE/PCE Scored", "setting": "[2]; F", "result": "^*73 / 2000"}, {"measurement": "PCE/Total Erythrocytes (Mean+/−SD)", "setting": "[2]; F", "result": "0.168±0.05"}, {"measurement": "PCE/Total Erythrocytes, Change from Control", "setting": "[2]; F", "result": "−65", "unit": "%"}, {"measurement": "Number of MPCE/1000 PCE (Mean +/− SD)", "setting": "[2]; F", "result": "36.5 ± ^1SD"}, {"measurement": "Number of MPCE/PCE Scored", "setting": "[2]; M", "result": "^*41 / 2000"}, {"measurement": "PCE/Total Erythrocytes (Mean+/−SD)", "setting": "[2]; M", "result": "0.127±0.06"}, {"measurement": "PCE/Total Erythrocytes, Change from Control", "setting": "[2]; M", "result": "−73", "unit": "%"}, {"measurement": "Number of MPCE/1000 PCE (Mean +/− SD)", "setting": "[2]; M", "result": "20.5 ± ^1SD"}]}, {"smiles": "O=C1NC(O)CCN1[C@@H]1O[C@H](CO)[C@@H](O)[C@H]1O", "note": "(stereo partly drawn) [THU, tetrahydrouridine]", "values": [{"measurement": "Cytoplasmic Alteration, MK (Minimal)", "setting": "CD-1 mice; females, Day 59", "result": "0/10"}, {"measurement": "Cytoplasmic Alteration, MK (Minimal)", "setting": "CD-1 mice; males, Day 59", "result": "0/10"}, {"measurement": "Bone Marrow Cytoplasmic Alteration, MK, Minimal", "setting": "CD-1 mice; females, Day 31", "result": "0/6"}, {"measurement": "Bone Marrow Hypocellularity, Marked", "setting": "CD-1 mice; females, Day 31", "result": "0/6"}, {"measurement": "Bone Marrow Hypocellularity, Moderate", "setting": "CD-1 mice; females, Day 31", "result": "0/6"}, {"measurement": "Duodenum Apoptosis, Minimal-Mild", "setting": "CD-1 mice; females, Day 31", "result": "0/6"}, {"measurement": "Ileum Apoptosis, Minimal-Mild", "setting": "CD-1 mice; females, Day 31", "result": "0/6"}, {"measurement": "Jejunum Apoptosis, Minimal-Mild", "setting": "CD-1 mice; females, Day 31", "result": "0/6"}, {"measurement": "Spleen Proliferation, MK, Red Pulp, Minimal-Mild", "setting": "CD-1 mice; females, Day 31", "result": "0/6"}, {"measurement": "Thymus Depletion, Lymphoid Cortex, Marked", "setting": "CD-1 mice; females, Day 31", "result": "0/5"}, {"measurement": "Thymus Depletion, Lymphoid Cortex, Mild-Moderate", "setting": "CD-1 mice; females, Day 31", "result": "0/5"}, {"measurement": "Uterus Atrophy, Mild", "setting": "CD-1 mice; females, Day 31", "result": "0/6"}, {"measurement": "Bone Marrow Hypocellularity, Marked", "setting": "CD-1 mice; females, Day 59", "result": "0/10"}, {"measurement": "Bone Marrow Hypocellularity, Moderate", "setting": "CD-1 mice; females, Day 59", "result": "0/10"}, {"measurement": "Duodenum Apoptosis, Minimal-Mild", "setting": "CD-1 mice; females, Day 59", "result": "0/10"}, {"measurement": "Ileum Apoptosis, Minimal-Mild", "setting": "CD-1 mice; females, Day 59", "result": "0/10"}, {"measurement": "Jejunum Apoptosis, Minimal-Mild", "setting": "CD-1 mice; females, Day 59", "result": "0/10"}, {"measurement": "Spleen Proliferation, MK, Red Pulp, Minimal-Mild", "setting": "CD-1 mice; females, Day 59", "result": "0/10"}, {"measurement": "Uterus Atrophy, Mild", "setting": "CD-1 mice; females, Day 59", "result": "0/10"}, {"measurement": "Bone Marrow Cytoplasmic Alteration, MK, Minimal", "setting": "CD-1 mice; males, Day 31", "result": "0/6"}, {"measurement": "Bone Marrow Hypocellularity, Marked", "setting": "CD-1 mice; males, Day 31", "result": "0/6"}, {"measurement": "Bone Marrow Hypocellularity, Moderate", "setting": "CD-1 mice; males, Day 31", "result": "0/6"}, {"measurement": "Duodenum Apoptosis, Minimal-Mild", "setting": "CD-1 mice; males, Day 31", "result": "0/6"}, {"measurement": "Epididymides Hypospermia, Head, Marked", "setting": "CD-1 mice; males, Day 31", "result": "0/6"}, {"measurement": "Epididymides Hypospermia, Head, Minimal-moderate", "setting": "CD-1 mice; males, Day 31", "result": "0/6"}, {"measurement": "Epididymides Hypospermia, Tail, Mild-moderate", "setting": "CD-1 mice; males, Day 31", "result": "0/6"}, {"measurement": "Ileum Apoptosis, Minimal-Mild", "setting": "CD-1 mice; males, Day 31", "result": "0/6"}, {"measurement": "Jejunum Apoptosis, Minimal-Mild", "setting": "CD-1 mice; males, Day 31", "result": "0/6"}, {"measurement": "Spleen Proliferation, MK, Red Pulp, Minimal-Mild", "setting": "CD-1 mice; males, Day 31", "result": "0/6"}, {"measurement": "Testis Degeneration, Seminiferous Tubules, Marked", "setting": "CD-1 mice; males, Day 31", "result": "0/6"}, {"measurement": "Testis Degeneration, Seminiferous Tubules, Minimal-mild", "setting": "CD-1 mice; males, Day 31", "result": "0/6"}, {"measurement": "Testis Degeneration, Seminiferous Tubules, Moderate", "setting": "CD-1 mice; males, Day 31", "result": "0/6"}, {"measurement": "Thymus Depletion, Lymphoid Cortex, Marked", "setting": "CD-1 mice; males, Day 31", "result": "0/6"}, {"measurement": "Thymus Depletion, Lymphoid Cortex, Mild-Moderate", "setting": "CD-1 mice; males, Day 31", "result": "0/6"}, {"measurement": "Bone Marrow Hypocellularity, Marked", "setting": "CD-1 mice; males, Day 59", "result": "0/10"}, {"measurement": "Bone Marrow Hypocellularity, Moderate", "setting": "CD-1 mice; males, Day 59", "result": "0/10"}, {"measurement": "Duodenum Apoptosis, Minimal-Mild", "setting": "CD-1 mice; males, Day 59", "result": "0/10"}, {"measurement": "Epididymides Hypospermia, Head, Marked", "setting": "CD-1 mice; males, Day 59", "result": "0/10"}, {"measurement": "Epididymides Hypospermia, Head, Moderate", "setting": "CD-1 mice; males, Day 59", "result": "0/10"}, {"measurement": "Epididymides Hypospermia, Tail, Mild-moderate", "setting": "CD-1 mice; males, Day 59", "result": "0/10"}, {"measurement": "Ileum Apoptosis, Minimal-Mild", "setting": "CD-1 mice; males, Day 59", "result": "0/10"}, {"measurement": "Jejunum Apoptosis, Minimal-Mild", "setting": "CD-1 mice; males, Day 59", "result": "0/10"}, {"measurement": "Spleen Proliferation, MK, Red Pulp, Minimal-Mild", "setting": "CD-1 mice; males, Day 59", "result": "0/10"}, {"measurement": "Testis Degeneration, Seminiferous Tubules, Marked", "setting": "CD-1 mice; males, Day 59", "result": "0/10"}, {"measurement": "Testis Degeneration, Seminiferous Tubules, Mild-moderate", "setting": "CD-1 mice; males, Day 59", "result": "0/10"}, {"measurement": "Testis Degeneration, Seminiferous Tubules, Severe", "setting": "CD-1 mice; males, Day 59", "result": "0/10"}, {"measurement": "Thymus Depletion, Lymphoid Cortex, Marked", "setting": "CD-1 mice; males, Day 59", "result": "0/10"}, {"measurement": "Thymus Depletion, Lymphoid Cortex, Mild-Moderate", "setting": "CD-1 mice; males, Day 59", "result": "0/10"}, {"measurement": "half life", "setting": "[3]", "result": 1.42, "unit": "h"}, {"measurement": "oral bioavailability", "setting": "[3]", "result": 20, "unit": "%"}, {"measurement": "sustained plasma concentrations that inhibit CDA", "setting": "[3]; for several hours", "result": "> 1", "unit": "µg/mL"}, {"measurement": "toxic effects", "setting": "beagle dog", "result": "no notable toxic effects"}, {"measurement": "toxic effects", "setting": "monkey", "result": "no notable toxic effects"}]}]}
